3 compounds from ChEMBL document CHEMBL1221208, “ATP-competitive inhibitors of the mitotic kinesin KSP that function via an allosteric mechanism” (Nat Chem Biol, 2007) can be followed below.

Test [1] addresses T1, Chromosome-associated kinesin KIF4A (Homo sapiens) (UniProt O95239).
T1 sequence (whole entry): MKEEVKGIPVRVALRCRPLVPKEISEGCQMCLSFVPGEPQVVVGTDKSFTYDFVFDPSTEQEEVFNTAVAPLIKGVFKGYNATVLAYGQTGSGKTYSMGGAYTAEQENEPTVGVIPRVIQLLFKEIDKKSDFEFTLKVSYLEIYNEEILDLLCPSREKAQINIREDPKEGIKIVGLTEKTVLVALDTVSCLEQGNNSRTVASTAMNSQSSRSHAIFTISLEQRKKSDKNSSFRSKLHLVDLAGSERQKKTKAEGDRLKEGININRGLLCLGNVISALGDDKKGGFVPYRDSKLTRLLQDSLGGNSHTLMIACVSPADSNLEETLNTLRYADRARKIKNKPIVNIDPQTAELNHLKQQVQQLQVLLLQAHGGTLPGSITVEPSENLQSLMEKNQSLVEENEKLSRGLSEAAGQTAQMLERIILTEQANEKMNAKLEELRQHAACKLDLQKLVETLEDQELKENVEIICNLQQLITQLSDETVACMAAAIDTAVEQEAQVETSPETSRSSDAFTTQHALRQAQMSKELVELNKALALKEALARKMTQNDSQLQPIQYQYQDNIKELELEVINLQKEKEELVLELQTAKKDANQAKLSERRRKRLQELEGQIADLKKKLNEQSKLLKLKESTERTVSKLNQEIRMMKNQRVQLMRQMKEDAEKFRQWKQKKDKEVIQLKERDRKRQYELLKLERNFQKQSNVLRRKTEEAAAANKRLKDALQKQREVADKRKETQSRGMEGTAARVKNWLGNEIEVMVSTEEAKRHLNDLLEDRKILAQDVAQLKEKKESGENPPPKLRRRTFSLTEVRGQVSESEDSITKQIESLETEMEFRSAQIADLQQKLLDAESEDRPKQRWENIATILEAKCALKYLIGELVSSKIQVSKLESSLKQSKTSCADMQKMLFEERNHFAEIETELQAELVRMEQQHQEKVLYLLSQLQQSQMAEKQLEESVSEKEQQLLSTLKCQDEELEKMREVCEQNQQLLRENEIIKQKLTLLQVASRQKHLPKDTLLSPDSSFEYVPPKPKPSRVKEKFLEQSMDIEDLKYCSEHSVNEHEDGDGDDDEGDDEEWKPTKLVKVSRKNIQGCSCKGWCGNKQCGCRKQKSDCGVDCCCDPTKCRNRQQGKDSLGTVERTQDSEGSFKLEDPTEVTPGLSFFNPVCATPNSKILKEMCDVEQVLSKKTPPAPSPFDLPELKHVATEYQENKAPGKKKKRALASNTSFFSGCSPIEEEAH
As to the kind of experiment: Inhibition of Kif4 at 10 uM by puruvate kinsase-lactate dehydrogenase detection system.

The target of test [2] is T2, Kinesin-like protein KIF23 (Homo sapiens) (UniProt Q02241).
T2 sequence (whole entry): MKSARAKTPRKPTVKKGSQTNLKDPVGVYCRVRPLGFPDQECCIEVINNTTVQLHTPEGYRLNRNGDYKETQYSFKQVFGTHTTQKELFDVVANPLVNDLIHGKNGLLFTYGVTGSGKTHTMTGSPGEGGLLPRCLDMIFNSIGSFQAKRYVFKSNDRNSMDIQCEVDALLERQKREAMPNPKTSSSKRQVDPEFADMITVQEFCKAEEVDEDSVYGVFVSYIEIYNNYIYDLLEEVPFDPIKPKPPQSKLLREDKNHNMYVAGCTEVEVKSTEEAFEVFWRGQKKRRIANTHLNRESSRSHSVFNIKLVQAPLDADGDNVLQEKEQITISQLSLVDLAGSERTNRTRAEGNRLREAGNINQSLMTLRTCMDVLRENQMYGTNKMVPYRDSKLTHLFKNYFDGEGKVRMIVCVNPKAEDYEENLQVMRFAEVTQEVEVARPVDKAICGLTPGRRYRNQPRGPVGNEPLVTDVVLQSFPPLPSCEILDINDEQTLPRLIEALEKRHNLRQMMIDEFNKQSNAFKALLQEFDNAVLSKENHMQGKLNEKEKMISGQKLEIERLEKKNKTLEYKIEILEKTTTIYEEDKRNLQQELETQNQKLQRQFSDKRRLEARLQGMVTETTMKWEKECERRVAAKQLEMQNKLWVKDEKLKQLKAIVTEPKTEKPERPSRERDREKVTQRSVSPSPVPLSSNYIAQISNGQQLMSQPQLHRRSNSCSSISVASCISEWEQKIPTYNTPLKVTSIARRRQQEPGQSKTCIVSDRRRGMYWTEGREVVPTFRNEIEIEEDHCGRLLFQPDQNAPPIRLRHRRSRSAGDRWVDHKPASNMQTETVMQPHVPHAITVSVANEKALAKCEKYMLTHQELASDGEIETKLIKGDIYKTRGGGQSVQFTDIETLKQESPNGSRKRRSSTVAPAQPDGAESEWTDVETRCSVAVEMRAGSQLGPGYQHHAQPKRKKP
In words: Inhibition of MKLP1 at 10 uM by puruvate kinsase-lactate dehydrogenase detection system.

The target in test [3] is Centromere-associated protein E (Homo sapiens) (UniProt Q02224). In words: Inhibition of CENPE at 10 uM by puruvate kinsase-lactate dehydrogenase detection system.
Test [4] addresses Kinesin-like protein KIF1A (Homo sapiens) (UniProt Q12756). As to the kind of experiment: Inhibition of Kif1A at 10 uM by puruvate kinsase-lactate dehydrogenase detection system.
For test [5], the target named is T3, Kinesin-like protein KIFC1 (Homo sapiens) (UniProt Q9BW19).
T3 sequence (whole entry): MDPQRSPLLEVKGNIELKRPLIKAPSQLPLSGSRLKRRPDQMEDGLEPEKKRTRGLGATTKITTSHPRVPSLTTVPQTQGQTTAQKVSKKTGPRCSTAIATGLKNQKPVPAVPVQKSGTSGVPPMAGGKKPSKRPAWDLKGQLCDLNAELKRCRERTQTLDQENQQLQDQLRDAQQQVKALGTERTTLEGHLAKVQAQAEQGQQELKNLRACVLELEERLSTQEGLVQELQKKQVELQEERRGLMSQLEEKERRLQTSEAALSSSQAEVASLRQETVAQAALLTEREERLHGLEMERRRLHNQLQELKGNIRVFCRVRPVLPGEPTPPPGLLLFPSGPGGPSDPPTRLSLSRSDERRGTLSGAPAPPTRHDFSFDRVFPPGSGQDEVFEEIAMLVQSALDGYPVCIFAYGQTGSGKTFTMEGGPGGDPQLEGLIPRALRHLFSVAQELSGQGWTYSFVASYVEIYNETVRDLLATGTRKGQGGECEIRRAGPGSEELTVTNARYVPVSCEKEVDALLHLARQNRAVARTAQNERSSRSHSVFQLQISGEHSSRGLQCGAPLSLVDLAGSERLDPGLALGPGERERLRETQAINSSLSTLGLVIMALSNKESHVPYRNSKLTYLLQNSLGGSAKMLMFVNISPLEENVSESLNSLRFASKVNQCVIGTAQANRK
In words: Inhibition of HSET at 10 uM by puruvate kinsase-lactate dehydrogenase detection system.

The term inhibition denotes the percentage by which the read-out fell short of the control.

Chain of Centromere-associated protein E (Homo sapiens) (Q02224 whole entry): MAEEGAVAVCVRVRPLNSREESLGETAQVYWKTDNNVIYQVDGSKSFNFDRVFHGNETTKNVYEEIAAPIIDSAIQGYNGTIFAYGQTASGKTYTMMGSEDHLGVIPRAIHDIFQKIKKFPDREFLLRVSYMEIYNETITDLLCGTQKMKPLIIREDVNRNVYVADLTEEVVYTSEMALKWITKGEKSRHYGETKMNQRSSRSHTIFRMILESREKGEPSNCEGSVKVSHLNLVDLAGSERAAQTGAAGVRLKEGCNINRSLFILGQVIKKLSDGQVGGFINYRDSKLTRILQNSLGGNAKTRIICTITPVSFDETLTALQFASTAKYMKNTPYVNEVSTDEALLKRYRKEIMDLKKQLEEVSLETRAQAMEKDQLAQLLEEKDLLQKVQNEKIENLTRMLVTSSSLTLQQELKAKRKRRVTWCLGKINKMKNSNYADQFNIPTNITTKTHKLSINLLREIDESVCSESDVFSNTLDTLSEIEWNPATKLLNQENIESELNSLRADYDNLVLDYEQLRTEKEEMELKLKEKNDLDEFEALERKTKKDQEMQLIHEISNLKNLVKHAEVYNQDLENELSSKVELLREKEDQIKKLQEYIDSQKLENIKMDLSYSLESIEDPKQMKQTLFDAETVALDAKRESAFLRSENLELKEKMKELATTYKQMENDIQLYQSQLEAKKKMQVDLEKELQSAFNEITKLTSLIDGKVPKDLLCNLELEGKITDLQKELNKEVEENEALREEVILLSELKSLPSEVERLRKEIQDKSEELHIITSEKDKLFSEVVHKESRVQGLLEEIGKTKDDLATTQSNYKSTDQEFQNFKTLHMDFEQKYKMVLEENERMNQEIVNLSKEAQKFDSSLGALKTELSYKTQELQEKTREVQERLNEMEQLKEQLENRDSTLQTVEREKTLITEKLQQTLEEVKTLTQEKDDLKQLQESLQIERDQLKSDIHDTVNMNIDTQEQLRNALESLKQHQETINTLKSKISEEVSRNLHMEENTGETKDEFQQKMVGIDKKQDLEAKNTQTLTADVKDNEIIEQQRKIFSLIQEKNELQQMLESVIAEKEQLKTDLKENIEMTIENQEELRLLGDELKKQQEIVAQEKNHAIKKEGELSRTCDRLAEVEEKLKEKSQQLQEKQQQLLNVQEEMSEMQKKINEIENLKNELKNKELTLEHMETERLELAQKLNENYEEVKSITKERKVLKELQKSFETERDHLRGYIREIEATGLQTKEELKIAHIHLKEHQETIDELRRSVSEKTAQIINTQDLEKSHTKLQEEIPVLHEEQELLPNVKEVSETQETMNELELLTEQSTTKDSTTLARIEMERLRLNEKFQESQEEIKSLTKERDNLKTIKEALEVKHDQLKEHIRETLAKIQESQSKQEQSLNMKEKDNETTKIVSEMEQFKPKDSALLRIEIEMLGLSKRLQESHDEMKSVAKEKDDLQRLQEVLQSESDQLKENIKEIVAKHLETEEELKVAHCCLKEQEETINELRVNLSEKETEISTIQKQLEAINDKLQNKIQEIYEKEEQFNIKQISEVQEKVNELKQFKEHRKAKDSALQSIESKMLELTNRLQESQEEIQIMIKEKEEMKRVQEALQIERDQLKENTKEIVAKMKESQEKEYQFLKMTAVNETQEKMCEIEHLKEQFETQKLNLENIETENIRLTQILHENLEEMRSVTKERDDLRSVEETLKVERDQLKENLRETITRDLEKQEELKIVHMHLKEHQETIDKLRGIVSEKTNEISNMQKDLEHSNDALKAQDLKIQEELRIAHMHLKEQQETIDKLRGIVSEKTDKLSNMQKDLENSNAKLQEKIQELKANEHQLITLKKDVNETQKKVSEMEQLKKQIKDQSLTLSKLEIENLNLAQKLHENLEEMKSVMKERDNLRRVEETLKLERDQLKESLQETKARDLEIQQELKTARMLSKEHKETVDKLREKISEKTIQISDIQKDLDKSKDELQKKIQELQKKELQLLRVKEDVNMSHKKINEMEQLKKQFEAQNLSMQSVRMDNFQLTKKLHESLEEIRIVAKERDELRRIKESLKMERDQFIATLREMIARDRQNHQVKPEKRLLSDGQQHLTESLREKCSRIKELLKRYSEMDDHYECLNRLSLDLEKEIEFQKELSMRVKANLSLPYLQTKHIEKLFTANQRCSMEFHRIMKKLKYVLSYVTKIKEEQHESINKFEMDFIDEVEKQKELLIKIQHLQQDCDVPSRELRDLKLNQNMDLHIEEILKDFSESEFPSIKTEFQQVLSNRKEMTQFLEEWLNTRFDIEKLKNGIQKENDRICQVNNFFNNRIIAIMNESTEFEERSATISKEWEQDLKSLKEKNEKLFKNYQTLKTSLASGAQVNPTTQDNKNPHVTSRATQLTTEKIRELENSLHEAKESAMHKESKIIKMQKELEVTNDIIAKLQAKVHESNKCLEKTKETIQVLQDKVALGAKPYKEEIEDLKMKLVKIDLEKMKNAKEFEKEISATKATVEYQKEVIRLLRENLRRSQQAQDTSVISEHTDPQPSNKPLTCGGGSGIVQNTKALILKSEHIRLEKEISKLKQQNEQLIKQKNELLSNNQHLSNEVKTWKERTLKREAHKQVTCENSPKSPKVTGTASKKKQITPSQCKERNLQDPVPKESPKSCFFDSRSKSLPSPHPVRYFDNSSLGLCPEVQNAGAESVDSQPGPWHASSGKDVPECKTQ
Chain of Kinesin-like protein KIF1A (Homo sapiens) (Q12756 whole entry): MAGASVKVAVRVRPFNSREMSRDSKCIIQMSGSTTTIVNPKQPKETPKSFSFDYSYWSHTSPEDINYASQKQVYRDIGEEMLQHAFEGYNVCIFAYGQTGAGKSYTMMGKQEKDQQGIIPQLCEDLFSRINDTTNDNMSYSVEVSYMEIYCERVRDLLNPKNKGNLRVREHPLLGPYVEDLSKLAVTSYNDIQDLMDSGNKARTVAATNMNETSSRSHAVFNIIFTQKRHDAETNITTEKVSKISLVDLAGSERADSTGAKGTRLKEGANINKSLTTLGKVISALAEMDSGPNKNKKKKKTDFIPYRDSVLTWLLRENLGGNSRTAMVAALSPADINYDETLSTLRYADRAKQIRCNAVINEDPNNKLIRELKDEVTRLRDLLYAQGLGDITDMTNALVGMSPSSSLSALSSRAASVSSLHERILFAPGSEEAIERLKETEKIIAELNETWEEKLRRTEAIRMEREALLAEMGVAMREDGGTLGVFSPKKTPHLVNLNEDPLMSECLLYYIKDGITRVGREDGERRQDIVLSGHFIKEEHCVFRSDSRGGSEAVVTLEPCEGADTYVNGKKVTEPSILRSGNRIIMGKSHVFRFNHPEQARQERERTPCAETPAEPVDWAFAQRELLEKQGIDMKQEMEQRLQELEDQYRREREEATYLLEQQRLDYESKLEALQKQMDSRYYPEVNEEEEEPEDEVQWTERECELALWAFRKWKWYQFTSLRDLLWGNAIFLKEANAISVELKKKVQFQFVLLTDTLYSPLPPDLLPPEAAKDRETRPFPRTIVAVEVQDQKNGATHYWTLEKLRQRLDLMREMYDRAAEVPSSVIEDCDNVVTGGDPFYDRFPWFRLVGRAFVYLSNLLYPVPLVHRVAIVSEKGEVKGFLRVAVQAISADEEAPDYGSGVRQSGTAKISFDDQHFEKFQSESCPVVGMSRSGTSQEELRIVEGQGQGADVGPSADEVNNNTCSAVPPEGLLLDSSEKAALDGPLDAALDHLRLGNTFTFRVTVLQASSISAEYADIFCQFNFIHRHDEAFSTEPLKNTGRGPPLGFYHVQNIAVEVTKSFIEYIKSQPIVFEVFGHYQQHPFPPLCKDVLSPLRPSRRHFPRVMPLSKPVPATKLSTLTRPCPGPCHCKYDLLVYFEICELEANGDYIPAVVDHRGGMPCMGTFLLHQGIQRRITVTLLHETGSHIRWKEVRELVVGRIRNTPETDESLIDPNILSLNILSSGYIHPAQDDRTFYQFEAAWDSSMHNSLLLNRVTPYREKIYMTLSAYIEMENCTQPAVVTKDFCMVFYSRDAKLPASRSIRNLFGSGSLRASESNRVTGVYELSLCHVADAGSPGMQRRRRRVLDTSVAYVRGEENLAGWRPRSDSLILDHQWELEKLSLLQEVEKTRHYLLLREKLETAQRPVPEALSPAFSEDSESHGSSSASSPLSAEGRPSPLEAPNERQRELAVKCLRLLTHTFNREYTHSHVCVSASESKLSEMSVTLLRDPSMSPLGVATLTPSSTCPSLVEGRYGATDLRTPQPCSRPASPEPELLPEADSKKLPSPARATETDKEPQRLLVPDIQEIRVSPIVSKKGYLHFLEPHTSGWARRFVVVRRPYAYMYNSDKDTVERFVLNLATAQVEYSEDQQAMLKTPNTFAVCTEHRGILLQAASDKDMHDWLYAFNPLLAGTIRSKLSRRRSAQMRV

With `O=C1CCc2cc(-c3ccc(C(F)(F)F)cc3)ccc2N1`, the inhibition in test [1] was 6.5%; in test [2], 7.7%; in test [3] it was 9%; in test [4] it was 8.9%; in test [5], 4.1%.
Taken in the same sequence, the figures for `Cc1ccc(C(=O)N(CCCN)[C@@H](c2nc3cc(Cl)ccc3c(=O)n2Cc2ccccc2)C(C)C)cc1` were 4.3%, 7.1%, 7%, 8.2% and 4.2%.
Regarding `NC(=O)Nc1ccc(-c2ccc(C(F)(F)F)cc2)cc1F`, the inhibition in test [1] turned out to be 8.2%; in test [2], 9.4%; in test [3], 11%; in test [4], 12.8%; in test [5] it was 2.6%.
